Test results reported in EP4458352A1, “EICOSAPENTAENOIC ACID ESTER DERIVATIVES FOR THE TREATMENT OF OBESITY” (Technische Universität Dresden, priority 2023, dated 2024).

Key:
NCI-H295R cells [1] = assay: Steroid production in forskolin-treated NCI-H295R cells treated with SC-26196; format: cell-based, Human; conditions: FADS2 inhibition (SC-26196)
Procedure: NCI-H295R cells (obtained from ATCC Cat# CRL-2128) were maintained in DMEM/F12 medium supplemented with 2.5 % Nu-Serum type I (Corning), 1 % Insulin Transferrin Selenium (ITS; Gibco), 50 U/mL penicillin and 50 µg/mL streptomycin. They were treated for 18 h with 10 µM SC-26196 or DMSO. In some experiments, NCI-H295R cells were treated or not for 48 h 66 µM EPA and in the last 24 h they were stimulated or not with forskolin (10 µM; Sigma-Aldrich).
Steroid hormones in plasma and cell culture supernatants were analyzed by LC-MS/MS as previously described (71). Fifty to hundred µL plasma or cell culture supernatants were extracted by solid phase extraction using positive pressure, followed by a dry-down under gentle stream of nitrogen. Residues were reconstituted in 100 µL of the initial LC mobile phase and 10 µL were injected for detection by the triple quadrupole mass spectrometer in multiple reaction-monitoring scan mode using positive electrospray ionization. Quantification of steroid concentrations was done by comparisons of ratios of analyte peak areas to respective peak areas of stable isotope labeled internal standards obtained in samples to those of calibrators.

NCI-H295R cells [2] = assay: Cholesterol and cholesteryl ester content (LC-MS/MS) of mitochondrial and lipid droplet fractions of NCI-H295R cells treated with SC-26196; format: cell-based, Human
Procedure: NCI-H295R cells (obtained from ATCC Cat# CRL-2128) were maintained in DMEM/F12 medium supplemented with 2.5 % Nu-Serum type I (Corning), 1 % Insulin Transferrin Selenium (ITS; Gibco), 50 U/mL penicillin and 50 µg/mL streptomycin. They were treated for 18 h with 10 µM SC-26196 or DMSO. […]
Cells were trypsinized and pelleted by centrifugation (500xg, 5 min, 4 °C). The cells were gently resuspended in homogenization buffer (200 mM mannitol, 50 mM sucrose, 10 mM KCI, […] 25 mM HEPES, pH 7.4, 1 µM aprotinin, 10 µM leupeptin, 20 µM PMSF) and homogenized on ice with 20 strokes of tight Dounce homogenizer. The samples were then centrifuged (800xg, 10 min, 4 °C) to pellet the nuclei. […]
Fractions 10-12 (SDHB-positive) and 4-5 (HSL-positive) were considered as mitochondrial and lipid droplet fractions, respectively. Protein concentration was measured in the mitochondrial and lipid droplet pools with the BCA Protein Assay Kit (Thermo Fisher) and fractions were analyzed for cholesterol and CE concentrations.
For quantification of cholesterol and cholesteryl esters, equal volumes of mitochondria fractions (180 µL) were combined, cholesterol-2,3,4-^13C (5 nmol, […]) and SPLASH®Lipidomix® (3 µL, Avanti Polar Lipids Inc) spiked, and samples incubated for 15 min on ice. […]

SMILES: N#CC(CCCN1CCN(/N=C/c2cccnc2)CC1)(c1ccccc1)c1ccccc1 [SC-26196]
- 11-deoxycortisol production (NCI-H295R cells [1]): reduced
- progesterone production (NCI-H295R cells [1]): reduced
- mitochondrial cholesterol levels upon forskolin stimulation (NCI-H295R cells [2]; SC-26196 18 h vs DMSO, forskolin (FSK, 1 µM) for 30 min, SDHB positive fractions): strong increase in mitochondrial cholesterol levels in control- but not SC-26196-treated cells
- cholesterol and CE in the lipid droplet (HSL positive) fractions (NCI-H295R cells [2]; SC-26196-treated cells): accumulated
